Read-outs that look alike come from different tables or passages of the source.
Experiments:
[1] = test system: P. falciparum stage V gametocytes; assay: Gametocytocidal ATP bioluminescence assay (single point 5 μM and 1 μM, dose-response); format: cell-based, Plasmodium falciparum; settings: for Ratio IC50 HepG2/IC50 P. falciparum: IC50 HepG2 divided by IC50 P. falciparum gametocytes
Description: Purified stage IV-V gametocytes were obtained as previously described [10]. Single point ATP bioluminescence assay and dose–response of positive hits was determined in accordance with the previously published protocol [10].

[2] = test system: P. falciparum NF54 gametocytes fed to An. stephensi mosquitoes; assay: Standard membrane feeding assay (SMFA); format: in vivo, Plasmodium falciparum
Description: Gametocyte cultures of the P. falciparum NF54 strain, kindly provided by Robert Sinden (Imperial College London), were induced at 0.5% asexual parasitemia and 4% hematocrit (RBCs from the Spanish Red Cross) at 40 mL final volume in T75 flasks. Gametocyte production media comprised RPMI 1640 (Sigma, #R5886), 30 mM bicarbonate (Sigma-Aldrich, #S5761) and 5 mM hypoxanthine (Gibco, #11067–030). Media were made complete with 5% human serum A^+ (Interstate Blood Bank, USA) and 5% AlbuMAX II (Gibco, #11021–037). Cultures were maintained in a gassed incubator at 37°C with 5% CO2, 5% O2, 90% N2 for 14–17 days post-induction, with daily medium replacement without the addition of fresh RBCs. Percentages of mature gametocytes were assessed by microscopic counts (Leica, DM2000) of Giemsa-stained thin blood smears, and functional microgametocytes were assessed for exflagellation activity at room temperature. To test exflagellation, mature gametocyte cultures were centrifuged at 1800 rpm for one minute. The infected RBC pellet was gently mixed with an equal volume of pre-warmed human serum and introduced onto a slide with a coverslip, followed by incubation at room temperature for 10–15 min. The average exflagellation centers per field at 10X magnification was determined by the exflagellation assay described above. Gametocyte counts and exflagellation assays were performed both before and after gametocyte drug treatment (at the time of SMFA).
Two days before gametocyte treatment with compound, spent media was removed and fresh Gametocyte Treatment Medium consisting of RPMI1640 with L-glutamine and 25 mM HEPES (Gibco, #13018–031), 10 mM glucose (Sigma-Aldrich, #G8270), 20 mM bicarbonate (Sigma-Aldrich, #S5761) and 5 mM hypoxanthine (Gibco, #11067) was added. Media were made complete with 10% of human A^+ serum (Interstate Blood Bank). Five ml of mature gametocyte culture at day 15 post-induction was transferred into each well of a pre-warmed 6-well plate. The selected TCAMS compounds were prepared fresh as a stock solution of 10 mM in 100% of DMSO and added to the mature gametocytes at the concentrations described in Fig 7. Gametocytes were exposed to the compound for a total duration of 48 h. At 24 h post-drug exposure, a fixed volume (3 mL) of spent medium was removed and fresh medium was re-added, accompanied by compound replenishment to obtain the required final concentration. Untreated gametocytes with the same final concentration of DMSO (0.1%) as in treated gametocytes were processed in parallel.
On the day of the feed, cultures were centrifuged at 2500 g for 3 min at 37°C, diluted 1:1 with 100% packed cell volume of fresh RBCs, and finally formulated as artificial mosquito blood meals at 50% hematocrit with pre-warmed human serum. All steps were performed at 37°C. Prepared blood meals were fed in duplicate to 4–6 days old female An. stephensi mosquitoes for 30–40 min via Parafilm membrane attached to glass feeders (Fisher Scientific, #12831283) connected to a 37°C circulating water bath. Fed mosquitoes were maintained in an incubator at 27°C and 75% relative humidity with 12 h light/dark cycles. At 7–8 days post-feeding, mosquitoes with fully developed ovaries were dissected for midguts (Leica, M80) and incubated in 0.2% mercurochrome solution in distilled water for 10–15 min. The total number of oocysts in individual midguts was counted using a light microscope (Leica, DM2000) under a 10X objective (100X magnification). Both infection prevalence (percentage of mosquitoes with one or more oocysts) and mean oocyst intensity of infection were defined in each treatment. The percentage block in transmission and the percentage reduction in mean oocyst intensity were calculated after normalizing to the Control DMSO-treated sample.

[3] = test system: P. falciparum asexual stages; settings: TCAMS data, cited from earlier work
[4] = test system: mature P. falciparum NF54 gametocytes (male gametocyte exflagellation); assay: Exflagellation assay; format: cell-based, Plasmodium falciparum
Description: The exflagellation assay was performed as described by Delves et al., with some modifications. Briefly, 200 μL samples of mature P. falciparum NF54 gametocytes culture in the presence of the corresponding test compound were incubated at 37°C for 48 h in an atmosphere of 5% CO2, 5% O2, 90% N2 in 1.5 mL microfuge tubes. After the incubation period, cells were settled down and medium was carefully removed. The cell pellets were resuspended in 15 μl of complete ookinete medium (RPMI medium with 25 mM HEPES, 50 mg/L hypoxanthine, 2 g/L sodium bicarbonate, 100 μM xanthurenic acid, 20% human serum) pre-warmed at 37°C. Once parasites were resuspended in ookinete medium, they were introduced in a chamber of a FastRead disposable hemocytometer slide and placed on a horizontal surface at room temperature (21°C), to allow cells to homogeneously settle, forming a tight monolayer.

[5] = Cytotoxicity in HepG2 cells (intracellular ATP, ATPlite, 48 h); format: cell-based, human; settings: human, HepG2 cells
[6] = test system: luciferase reaction (BacTiter-Glo); assay: Interference assay (inhibition of the BacTiter-Glo luciferase reaction); format: biochemical; set-up: concentration or dose not given beside the values; settings: ATP interference assay
Description: To discard possible false-positive results, we performed an interference assay in parallel. […] […]. The ATP solution was made by dissolving ATP powder (ATP standard from the ATPlite 1 step assay kit, reference 6016731, Perkin Elmer) in culture medium. The positive control used was the Luciferase Inhibitor I Calbiochem (Merck, 119113) at 100 μM.

[7] = test system: HepG2 cells; assay: Cytotoxicity in HepG2 cells (intracellular ATP, ATPlite, 48 h); format: cell-based, human; settings: IC50 HepG2 divided by IC50 P. falciparum gametocytes
[8] = test system: P. falciparum stage V gametocytes; assay: microbe, parasite or virus in culture; set-up: BacTiter-Glo ATP luminescence viability of purified stage V gametocytes in 384-well plates, per cent inhibition versus DMSO; settings: Plasmodium falciparum, 48 h, read-out: % Inhibition
[9] = Plasmodium falciparum, P. falciparum gametocytes, average, read-out: IC50 Pf Gametocytes average, IC50 (µM) average
[10] = gametocytes treated 48 h at the IC90, Fig 7
[11] = P. falciparum asexual stages, read-out: IC50 (µM) Pf asexual stages
[12] = asexual stages, read-out: IC50 asexual
[13] = IC50 per ratio column head, unit inferred, read-out: Cytotoxicity in HepG2
[14] = sexual stages (gametocytes), dose-response, read-out: IC50 sexual
[15] = HepG2, 48 h exposure, intracellular ATP, read-out: IC50 (μM) Cytotoxicity HepG2

Row | Compound | IC90 ([1]; Plasmodium falciparum, ATP assay, Fig 7, read-out: IC90 against gametocytes) | IC50 [1, 9] | Infection Prevalence (%) ([2]; An. stephensi fed gametocytes treated 48 h at the IC90, Fig 6, one of two independent experiments, control 94%) | % Prevalence of infection [2, 10] | % Reduction oocysts SMFA [2, 10] | Block in Transmission (%) ([2]; gametocytes treated 48 h at the IC90, normalized to DMSO control, Fig 6) | Reduction in Oocyst (%) ([2]; mean oocyst intensity, gametocytes treated 48 h at the IC90, normalized to DMSO control, Fig 6) | IC50 [3, 11] | IC50 [3, 12] | % Exflagellation inh. at the IC90 ([4]; 48 h, concentration = IC90, Fig 7) | % Inhibition exflagellation ([4]; 48 h post-treatment at the IC90 of the ATP assay, normalized to control, Fig 6) | IC50 at 48 h [5, 13] | % Control luminiscence [6] | Ratio IC50 HepG2/IC50 P. falciparum [1] | Ratio IC50 HepG2/IC50 P. falciparum [7] | IC50 [1, 14] | IC50 at 48 h [5, 15] | IC50 ([1]; Plasmodium falciparum, sexual stages (gametocytes), dose-response, read-out: IC50 sexual) | inhibition at 5 µM [8]
1 | CNC(=S)NN=C(C)c1ccccn1 [TCMDC-123475] | 10 µM | 1.17 µM | 0% | 0% | 100% | 100% | 100% | 0.27 µM | 0.272 µM | 97.7% | 97.7% | > 25 µM | – | – | – | – | – | – | –
2 | COCCCNC(=S)NN=C(C)c1ccccn1 [TCMDC-137907] | – | 0.16 µM | – | – | – | – | – | 0.3 µM | 0.296 µM | – | – | 17 µM | 100% | 106 | 106 | – | – | – | –
3 | c1ccc2c(NCCCCCCNc3ccnc4ccccc34)ccnc2c1 [TCMDC-137913] | – | 0.96 µM | – | – | – | – | – | – | 0.191 µM | – | – | 16.4 µM | 100% | 17 | 17 | 0.963 µM | – | – | –
4 | COc1ccc2nc3cc(Cl)ccc3c(NCCCCNc3c4ccc(Cl)cc4nc4ccc(OC)cc34)c2c1 [TCMDC-138218] | – | 0.2 µM | – | – | – | – | – | – | 0.16 µM | – | – | 14.5 µM | 100% | 72 | 72 | – | – | – | –
5 | COc1cc2nc(N3CCC(CCCC4CCNCC4)CC3)nc(NCc3ccccn3)c2cc1OC [TCMDC-138494] | – | 0.4 µM | – | – | – | – | – | – | 0.757 µM | – | – | 10.6 µM | 100% | 26 | 26 | – | – | – | –
6 | COc1cc2nc(NCC3CCN(c4nc(N)c5cc(OC)c(OC)cc5n4)CC3)nc(N)c2cc1OC [TCMDC-138723] | – | 1.42 µM | – | – | – | – | – | – | 0.776 µM | – | – | > 25 µM | 98% | >18 | >18 | – | – | – | –
7 | COc1ccc(COc2cc(NCCCN)nc3ccccc23)cc1 [TCMDC-139286] | – | 0.56 µM | – | – | – | – | – | 1.28 µM | 1.28 µM | – | – | 14 µM | 100% | 25 | 25 | – | 14 µM | – | –
8 | c1cc(Nc2nc(-c3ccc(-c4csc(Nc5ccncc5)n4)cc3)cs2)ccn1 [TCMDC-139725] | – | 0.26 µM | – | – | – | – | – | – | 0.117 µM | – | – | 17.3 µM | 93% | 67 | 67 | – | – | – | –
9 | CCCCCCCN1CC[C@@H](CCCc2ccnc3ccc(OCCCCNC(N)=NO)cc23)[C@@H](CC)C1 [TCMDC-139839] | – | 0.47 µM | – | – | – | – | – | – | 0.952 µM | – | – | 17.2 µM | 100% | 36 | 36 | 0.473 µM | – | – | –
10 | CC(C)CNCc1cccc(-c2ccc(CN(CCCN3CCN(C)CC3)C(=O)CCC3CCCC3)cc2)c1 [TCMDC-140558] | – | 0.7 µM | – | – | – | – | – | – | 0.877 µM | – | – | > 25 µM | 100% | >36 | >36 | – | – | – | –
11 | CCN(CC)CCN(Cc1ccc(-c2ccc(C(F)(F)F)cc2)cc1)C(=O)Cn1cc(Cc2cnn(C)c2)c(=O)nc1/C=C/c1cccc(F)c1F [TCMDC-140964] | – | 0.17 µM | – | – | – | – | – | – | 0.957 µM | – | – | 14.4 µM | 100% | 83 | 83 | 0.173 µM | – | – | –
12 | CN(C)CCCNc1nccc(N(C)c2ccc(NC(=O)Nc3cc(C(F)(F)F)ccc3F)cc2)n1 [TCMDC-141633] | – | 1 µM | – | – | – | – | – | – | 0.98 µM | – | – | 17.3 µM | 100% | 17 | 17 | 0.997 µM | – | – | –
13 | O=c1c(Br)ccccc1Br [TCMDC-142246] | – | 0.21 µM | – | – | – | – | – | 0.79 µM | 0.795 µM | – | – | 12.6 µM | 100% | 61 | 61 | – | 13 µM | 0.207 µM | 103%
